In this test the test system is Elongator complex protein 1 (ELP1, also referred to as IKBKAP). In words: IKBKAP-HTRF Assay. The test is classed as cell-based, human. The settings on record: FD patient-derived fibroblasts GM04589, 48 hours incubation; for EC2x for IKBKAP protein expression (concentration producing two times the amount of IKBKAP protein vs DMSO vehicle control): 7-point concentration curve; for MFI (maximum fold increase in IKBKAP protein abundance relative to the vehicle control): HTRF. Here is the method: The assay is used for the quantitative determination of Elongator complex protein 1 (ELP1, also referred to as IKBKAP) concentration in cell lysates using the HTRF® (Homogeneous Time-Resolved Fluorescence) technology. IKBKAP is detected in a sandwich HTRF assay by use of an anti-IKAP antibody labeled with a donor and an anti-IKAP antibody labeled with an acceptor.
Cells were thawed and incubated in DMEM-10% FBS for 72 hours. Cells were trypsinized, counted, and re-suspended to a concentration of 50,000 cells/mL in DMEM-10% FBS. A 199 μL, aliquot of the cell suspensions were plated at 10,000 cells per well in a 96 well microtiter plate and incubated for 3 to 5 hours. […] Test compounds were serially diluted 3.16-fold in 100% DMSO to generate a 7-point concentration curve. A 1 μL aliquot of 200× compound solution was transferred to cell-containing wells, and cells were incubated for 48 hours in a cell culture incubator (37° C., 5% CO2, 100% relative humidity). Triplicate samples were set up for each compound concentration. After 48 hours, the supernatant was removed from the cells and 50 μL of the 1× LB4 lysis buffer, containing protease inhibitors, was added to the cells and incubated with shaking at room temperature for 1 hour. A 36 μL aliquot of this lysate was subsequently transferred to the 384-well plate containing 4 μL of the antibody solution (1:50 dilution of anti IKAP d2 and anti-IKAP K(9+8) in detection buffer). The 384-well plate was then centrifuged for 1 minute to bring the solutions to the bottom of the plate and incubated overnight at 4° C. Fluorescence for each well of the plate at 665 nm and 620 nm was measured was on the EnVision plate reader (Perkin Elmer). The AF for each sample is calculated by: […]
wherein Signal is the normalized fluorescence for each sample well and Blank is the average normalized average fluorescence for the Blank control wells.
The maximum fold increase (MFI) in IKBKAP protein abundance for compounds of Formula (I) or a form thereof relative to the vehicle control are provided in Table 1. MFI was calculated by dividing the AF value for each sample well by the sample AF for the vehicle control wells.
The EC2× for IKBKAP protein expression obtained from the 7-point concentration curve generated for each test compound according to the protocol in Biological Example 1 are also provided in Table 1. The term “EC2× for IKBKAP protein expression” is defined as the concentration of test compound that is effective in producing two times the amount of IKBKAP protein in a FD patient cell compared to the amount produced from the DMSO vehicle control.
For orientation: In TR-FRET formats the signal depends on donor and acceptor labels being close together.

Consider `CC[C@H](N)c1sc2c(NCc3ccco3)nc(Cl)nc2c1C` [Cpd 48, 6-[(1S)-1-aminopropyl]-2-chloro-N-[(furan-2-yl)methyl]-7-methylthieno[3,2-d]pyrimidin-4-amine], for which the “EC2x for IKBKAP protein expression (concentration producing two times the amount of IKBKAP protein vs DMSO vehicle control)” value is “*** (between >0.02 μM and ≤0.5 μM)”; the “MFI (maximum fold increase in IKBKAP protein abundance relative to the vehicle control)” value is “** (between >1.9 and <2.9)”.
For `Cc1c(C[C@@H](C)CO)sc2c(NCc3ccco3)nc(Cl)nc12` [Cpd 71, (2R)-3-(2-chloro-4-{[(furan-2-yl)methyl]amino}-7-methylthieno[3,2-d]pyrimidin-6-yl)-2-methylpropan-1-ol], the “EC2x for IKBKAP protein expression (concentration producing two times the amount of IKBKAP protein vs DMSO vehicle control)” value is reported as “* (EC2×>1 μM)” and the “MFI (maximum fold increase in IKBKAP protein abundance relative to the vehicle control)” value was “* (MFI<1.9)”.
For `C[C@H](N)Cc1sc2c(NCc3cccs3)nc(Cl)nc2c1-c1ccc(Cl)cc1` [Cpd 88, 6-[(2S)-2-aminopropyl]-2-chloro-7-(4-chlorophenyl)-N-[(thiophen-2-yl)methyl]thieno[3,2-d]pyrimidin-4-amine], the “EC2x for IKBKAP protein expression (concentration producing two times the amount of IKBKAP protein vs DMSO vehicle control)” value was “* (EC2×>1 μM)” and the “MFI (maximum fold increase in IKBKAP protein abundance relative to the vehicle control)” value was “* (MFI<1.9)”.
Regarding `C[C@H](N)Cc1cc2ncnc(NCc3ccncc3)c2s1` [Cpd 11, 6-[(2S)-2-aminopropyl]-N-[(pyridin-4-yl)methyl]thieno[3,2-d]pyrimidin-4-amine], the “EC2x for IKBKAP protein expression (concentration producing two times the amount of IKBKAP protein vs DMSO vehicle control)” value is “*** (between >0.02 μM and ≤0.5 μM)”; the “MFI (maximum fold increase in IKBKAP protein abundance relative to the vehicle control)” value was “**** (between >3.9 and <4.9)”.
For the compound `Cc1c(C[C@H](C)CN)sc2c(NCc3ccco3)nc(Cl)nc12` [Cpd 70, 6-[(2S)-3-amino-2-methylpropyl]-2-chloro-N-[(furan-2-yl)methyl]-7-methylthieno[3,2-d]pyrimidin-4-amine], the “EC2x for IKBKAP protein expression (concentration producing two times the amount of IKBKAP protein vs DMSO vehicle control)” value was “*** (between >0.02 μM and ≤0.5 μM)”; the “MFI (maximum fold increase in IKBKAP protein abundance relative to the vehicle control)” value is “**** (between >3.9 and <4.9)”.
For `C[C@H](N)Cc1sc2c(NCc3cccs3)nc(Cl)nc2c1Br` [Cpd 82, 6-[(2S)-2-aminopropyl]-7-bromo-2-chloro-N-[(thiophen-2-yl)methyl]thieno[3,2-d]pyrimidin-4-amine], the “EC2x for IKBKAP protein expression (concentration producing two times the amount of IKBKAP protein vs DMSO vehicle control)” value is reported as “***** (<0.005 μM)” and the “MFI (maximum fold increase in IKBKAP protein abundance relative to the vehicle control)” value is “***** (>4.9)”.
`Cc1c(C[C@H](C)N)sc2c(NCc3cnccn3)nc(Cl)nc12` [Cpd 32, 6-[(2S)-2-aminopropyl]-2-chloro-7-methyl-N-[(pyrazin-2-yl)methyl]thieno[3,2-d]pyrimidin-4-amine]: the “EC2x for IKBKAP protein expression (concentration producing two times the amount of IKBKAP protein vs DMSO vehicle control)” value was “*** (between >0.02 μM and ≤0.5 μM)”; the “MFI (maximum fold increase in IKBKAP protein abundance relative to the vehicle control)” value was “**** (between >3.9 and <4.9)”.
With `N#Cc1csc2c(NCc3cccs3)nc(Cl)nc12` [Cpd 84, 2-chloro-4-{[(thiophen-2-yl)methyl]amino}thieno[3,2-d]pyrimidine-7-carbonitrile], the “EC2x for IKBKAP protein expression (concentration producing two times the amount of IKBKAP protein vs DMSO vehicle control)” value is “*** (between >0.02 μM and ≤0.5 μM)”; the “MFI (maximum fold increase in IKBKAP protein abundance relative to the vehicle control)” value is “**** (between >3.9 and <4.9)”.
In the case of `Cc1c(C2CNC2)sc2c(NCc3ccco3)nc(Cl)nc12` [Cpd 41, 6-(azetidin-3-yl)-2-chloro-N-[(furan-2-yl)methyl]-7-methylthieno[3,2-d]pyrimidin-4-amine], the “EC2x for IKBKAP protein expression (concentration producing two times the amount of IKBKAP protein vs DMSO vehicle control)” value is “*** (between >0.02 μM and ≤0.5 μM)”; the “MFI (maximum fold increase in IKBKAP protein abundance relative to the vehicle control)” value is “** (between >1.9 and <2.9)”.
Regarding `COc1ccc(-c2c(C[C@H](C)N)sc3c(NCc4ccco4)nc(Cl)nc23)cc1` [Cpd 65, 6-[(2S)-2-aminopropyl]-2-chloro-N-[(furan-2-yl)methyl]-7-(4-methoxyphenyl)thieno[3,2-d]pyrimidin-4-amine], the “EC2x for IKBKAP protein expression (concentration producing two times the amount of IKBKAP protein vs DMSO vehicle control)” value is listed as “* (EC2×>1 μM)” and the “MFI (maximum fold increase in IKBKAP protein abundance relative to the vehicle control)” value is listed as “* (MFI<1.9)”.
On to `Cc1c(C[C@H](C)N)sc2c(NCc3cccs3)nc(Cl)nc12` [Cpd 28, 6-[(2S)-2-aminopropyl]-2-chloro-7-methyl-N-[(thiophen-2-yl)methyl]thieno[3,2-d]pyrimidin-4-amine], for which the “EC2x for IKBKAP protein expression (concentration producing two times the amount of IKBKAP protein vs DMSO vehicle control)” value is recorded as “***** (<0.005 μM)” and the “MFI (maximum fold increase in IKBKAP protein abundance relative to the vehicle control)” value was “***** (>4.9)”.
The like results for `N[C@@H](CO)Cc1cc2nc(Cl)nc(NCc3ccco3)c2s1` [Cpd 22, (2R)-2-amino-3-(2-chloro-4-{[(furan-2-yl)methyl]amino}thieno[3,2-d]pyrimidin-6-yl)propan-l-ol] were, in that order, “***** (<0.005 μM)” and “***** (>4.9)”.
For `C[C@H](N)Cc1sc2c(NCc3cccs3)nc(C#N)nc2c1C#N` [Cpd 85, 6-[(2S)-2-aminopropyl]-4-{[(thiophen-2-yl)methyl]amino}thieno[3,2-d]pyrimidine-2,7-dicarbonitrile], the “EC2x for IKBKAP protein expression (concentration producing two times the amount of IKBKAP protein vs DMSO vehicle control)” value was “*** (between >0.02 μM and ≤0.5 μM)”; the “MFI (maximum fold increase in IKBKAP protein abundance relative to the vehicle control)” value is “*** (between >2.9 and <3.9)”.
For `CC[C@H](N)Cc1sc2c(NCc3ncco3)nc(Cl)nc2c1C` [Cpd 69, 6-[(2S)-2-aminobutyl]-2-chloro-7-methyl-N-[(1,3-oxazol-2-yl)methyl]thieno[3,2-d]pyrimidin-4-amine], the “EC2x for IKBKAP protein expression (concentration producing two times the amount of IKBKAP protein vs DMSO vehicle control)” value is “**** (between >0.005 μM and ≤0.02 μM)”; the “MFI (maximum fold increase in IKBKAP protein abundance relative to the vehicle control)” value is “***** (>4.9)”.
For the compound `Cc1c(C[C@H](C)N)sc2c(NCc3ccco3)nc(Br)nc12` [Cpd 38, 6-[(2S)-2-aminopropyl]-2-bromo-N-[(furan-2-yl)methyl]-7-methylthieno[3,2-d]pyrimidin-4-amine], the “EC2x for IKBKAP protein expression (concentration producing two times the amount of IKBKAP protein vs DMSO vehicle control)” value was “***** (<0.005 μM)” and the “MFI (maximum fold increase in IKBKAP protein abundance relative to the vehicle control)” value is reported as “***** (>4.9)”.
With `Cc1c(C[C@H](C)NC2CCC2)sc2c(NCc3ccco3)nc(Cl)nc12` [Cpd 78, 2-chloro-6-[(2S)-2-(cyclobutylamino)propyl]-N-[(furan-2-yl)methyl]-7-methylthieno[3,2-d]pyrimidin-4-amine], the “EC2x for IKBKAP protein expression (concentration producing two times the amount of IKBKAP protein vs DMSO vehicle control)” value was “*** (between >0.02 μM and ≤0.5 μM)”; the “MFI (maximum fold increase in IKBKAP protein abundance relative to the vehicle control)” value is “*** (between >2.9 and <3.9)”.
Take `C[C@H](N)Cc1sc2c(NCc3cccs3)nc(Cl)nc2c1C1CC1` [Cpd 86, 6-[(2S)-2-aminopropyl]-2-chloro-7-cyclopropyl-N-[(thiophen-2-yl)methyl]thieno[3,2-d]pyrimidin-4-amine]: the “EC2x for IKBKAP protein expression (concentration producing two times the amount of IKBKAP protein vs DMSO vehicle control)” value was “**** (between >0.005 μM and ≤0.02 μM)”; the “MFI (maximum fold increase in IKBKAP protein abundance relative to the vehicle control)” value is “**** (between >3.9 and <4.9)”.
As to `Cc1c(C[C@@H](N)CO)sc2c(NCc3ccco3)nc(Cl)nc12` [Cpd 19, (2R)-2-Amino-3-(2-chloro-4-{[(furan-2-yl)methyl]amino}-7-methylthieno[3,2-d]pyrimidin-6-yl)propan-1-ol], the “EC2x for IKBKAP protein expression (concentration producing two times the amount of IKBKAP protein vs DMSO vehicle control)” value is on record as “***** (<0.005 μM)” and the “MFI (maximum fold increase in IKBKAP protein abundance relative to the vehicle control)” value is given as “***** (>4.9)”.
Taken in the same sequence, the figures for `CC[C@H](N)Cc1sc2c(NCc3ccncn3)nc(Cl)nc2c1C` [Cpd 89, 6-[(2S)-2-aminobutyl]-2-chloro-7-methyl-N-[(pyrimidin-4-yl)methyl]thieno[3,2-d]pyrimidin-4-amine] were “***** (<0.005 μM)” and “***** (>4.9)”.
Take `Cc1csc2c(NCc3ccco3)nc(Cl)nc12` [Cpd 18, 2-chloro-N-[(furan-2-yl)methyl]-7-methylthieno[3,2-d]pyrimidin-4-amine]: the “EC2x for IKBKAP protein expression (concentration producing two times the amount of IKBKAP protein vs DMSO vehicle control)” value was “*** (between >0.02 μM and ≤0.5 μM)”; the “MFI (maximum fold increase in IKBKAP protein abundance relative to the vehicle control)” value is listed as “***** (>4.9)”.

These data come from patent US20230057568A1, “COMPOUNDS FOR TREATING FAMILIAL DYSAUTONOMIA” (PTC THERAPEUTICS, INC., priority 2019, published 2023).
